By IC50 is commonly meant the point on the concentration scale where inhibition reaches its midpoint. Broadly, the melting point is the temperature, or range, at which the solid turns liquid.

Data set [1] concerns HCV replicon RNA (GenBank Accession No. AJ242654). Briefly: HCV Replicon Assay (replicon RNA reduction and/or Fluc reporter signal). The class given is cell-based, Hepatitis C virus. Particulars: Hepatitis C virus, 72 h, replicon-containing cells cultured with test compound for up to 3 days. In a few lines: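 Bicistronic replicon-containing cells cultured with compound for up to 3 days, with interferon as positive control. Inhibition quantified by replicon RNA reduction and/or Fluc reporter signal; IC50 values generally derived from replicon RNA reduction.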
Background: A replicon is a self-replicating genome or part of one, used to study replication in cells.

`C[C@H](NS(=O)(=O)c1cnc(-c2c(C#N)c3cc(C(F)F)cnc3n2C2CCC2)nc1)C(F)(F)F` [Cpd 454, 2-[3-cyano-1-cyclobutyl-5-(difluoromethyl)-1H-pyrrolo[2,3-b]pyridin-2-yl]-N-[(2S)-1,1,1-trifluoropropan-2-yl]pyrimidine-5-sulfonamide] had a melting point of 155 to 156 °C. The molecule also came in with an IC50 in data set [1] of under 0.5 µM.
The corresponding values for `CC(C)(NS(=O)(=O)c1ccc(-c2c(C(N)=O)c3cc(C(F)(F)F)cnc3n2C2CCC2)cc1)C(F)(F)F` [Cpd 401, 1-cyclobutyl-5-(trifluoromethyl)-2-{4-[(1,1,1-trifluoro-2-methylpropan-2-yl)sulfamoyl]phenyl}-1H-pyrrolo[2,3-b]pyridine-3-carboxamide] are 239 to 241 °C and under 0.5 µM.
With `Cc1cnc2c(C#N)c(-c3ccc(S(=O)(=O)N[C@@H](C)C(F)(F)F)cn3)n(-c3ccccc3)c2c1` [Cpd 476, 6-(3-cyano-6-methyl-1-phenyl-1H-pyrrolo[3,2-b]pyridin-2-yl)-N-[(2S)-1,1,1-trifluoropropan-2-yl]pyridine-3-sulfonamide], the melting point fell in the range of 245 to 247 °C. The molecule also gave a half-inhibitory concentration (IC50) in data set [1] of under 0.5 µM.
The molecule `N#Cc1cnc2c(c1)c(C#N)c(-c1ccc(S(=O)(=O)NC3(C(F)(F)F)CC3)cc1)n2C1CCC1` [Cpd 112, 4-(3,5-dicyano-1-cyclobutyl-1H-pyrrolo[2,3-b]pyridin-2-yl)-N-[1-(trifluoromethyl)cyclopropyl]benzenesulfonamide] showed a melting point of 231 to 233 °C. The IC50 in data set [1] was under 0.5 µM.
The matching figures for `CCc1cnc2c(c1)c(C#N)c(-c1ccc(S(=O)(=O)N[C@H](C)C(F)(F)F)cc1)n2C1CCC1` [Cpd 156, 4-(3-cyano-1-cyclobutyl-5-ethyl-1H-pyrrolo[2,3-b]pyridin-2-yl)-N-[(2R)-1,1,1-trifluoropropan-2-yl]benzenesulfonamide]: 194 to 201 °C and 0.5 to 2 µM.
The matching figures for `CCc1cnc2c(c1)c(C#N)c(-c1ccc(S(=O)(=O)NC3(C)CC3)cc1)n2C1CCC1` [Cpd 187, 4-(3-cyano-1-cyclobutyl-5-ethyl-1H-pyrrolo[2,3-b]pyridin-2-yl)-N-(1-methylcyclopropyl)benzenesulfonamide]: 157 to 163 °C and under 0.5 µM.
The corresponding values for `Cc1cnc2c(c1)c(C#N)c(-c1ccc(S(=O)(=O)N[C@@H](C)C(F)(F)F)cn1)n2C(C)C` [Cpd 493, 6-[3-cyano-5-methyl-1-(propan-2-yl)-1H-pyrrolo[2,3-b]pyridin-2-yl]-N-[(2S)-1,1,1-trifluoropropan-2-yl]pyridine-3-sulfonamide] are 157 to 162 °C and under 0.5 µM.
Molecule `Cc1cnc2c(c1)c(C#N)c(-c1ccc(S(=O)(=O)N[C@@H](C)C(F)(F)F)cn1)n2-c1cccnn1` [Cpd 383, 6-[3-cyano-5-methyl-1-(pyridazin-3-yl)-1H-pyrrolo[2,3-b]pyridin-2-yl]-N-[(2S)-1,1,1-trifluoropropan-2-yl]pyridine-3-sulfonamide] displayed a melting point of 150 to 153 °C. The 50% inhibitory concentration (IC50) in data set [1] is under 0.5 µM.
The corresponding values for `CC(C)(C)NS(=O)(=O)c1ccc(-c2c(C#N)c3cc(C(F)(F)F)cnc3n2-c2ccccn2)cc1` [Cpd 336, N-tert-butyl-4-[3-cyano-1-(pyridin-2-yl)-5-(trifluoromethyl)-1H-pyrrolo[2,3-b]pyridin-2-yl]benzenesulfonamide] are 227 to 230 °C and 0.5 to 2 µM.
On to `N#Cc1c(-c2ncc(S(=O)(=O)NC(CF)CF)cn2)n(C2CCCC2)c2cc(Cl)ncc12` [Cpd 86, 2-(6-chloro-3-cyano-1-cyclopentyl-1H-pyrrolo[3,2-c]pyridin-2-yl)-N-(1,3-difluoropropan-2-yl)pyrimidine-5-sulfonamide], for which the melting point lay in the range of 224 to 226 °C. The molecule also came in with a 50% inhibitory concentration (IC50) in data set [1] of under 0.5 µM.
The molecule `C[C@@H](NS(=O)(=O)c1ccc(-c2c(C#N)c3cc(OC(F)F)cnc3n2C2CCC2)nc1)C(F)(F)F` [Cpd 197, 6-[3-cyano-1-cyclobutyl-5-(difluoromethoxy)-1H-pyrrolo[2,3-b]pyridin-2-yl]-N-[(2R)-1,1,1-trifluoropropan-2-yl]pyridine-3-sulfonamide] came in with a melting point of 149 to 151 °C. The same molecule yielded an IC50 in data set [1] of under 0.5 µM.
The corresponding values for `C[C@H](NS(=O)(=O)c1ccc(-c2c(C#N)c3cc(F)cnc3n2C2CCC2)nc1)C(F)(F)F` [Cpd 169, 6-(3-cyano-1-cyclobutyl-5-fluoro-1H-pyrrolo[2,3-b]pyridin-2-yl)-N-[(2S)-1,1,1-trifluoropropan-2-yl]pyridine-3-sulfonamide] are 172 to 174 °C and under 0.5 µM.
As for `Cc1cnc2c(C#N)c(-c3ccc(S(=O)(=O)N[C@@H](C)C(F)(F)F)cn3)n(-c3cnccn3)c2c1` [Cpd 463, 6-[3-cyano-6-methyl-1-(pyrazin-2-yl)-1H-pyrrolo[3,2-b]pyridin-2-yl]-N-[(2S)-1,1,1-trifluoropropan-2-yl]pyridine-3-sulfonamide], the melting point was 288 to 289 °C. Moreover, in data set [1], the IC50 was under 0.5 µM.
The corresponding values for `C[C@H](NS(=O)(=O)c1ccc(-c2c(C#N)c3cc(O)cnc3n2C2CCCC2)nc1)C(F)(F)F` [Cpd 294, 6-(3-cyano-1-cyclopentyl-5-hydroxy-1H-pyrrolo[2,3-b]pyridin-2-yl)-N-[(2S)-1,1,1-trifluoropropan-2-yl]pyridine-3-sulfonamide] are 221 to 223 °C and under 0.5 µM.
`Cc1cnc2c(C#N)c(-c3ccc(S(=O)(=O)NC(C)(C)C(F)(F)F)cn3)n(C3CCC3)c2c1` [Cpd 209, 6-(3-cyano-1-cyclobutyl-6-methyl-1H-pyrrolo[3,2-b]pyridin-2-yl)-N-(1,1,1-trifluoro-2-methylpropan-2-yl)pyridine-3-sulfonamide] yielded a melting point of 238 to 240 °C. For the same molecule, the half-inhibitory concentration (IC50) in data set [1] is under 0.5 µM.
The matching figures for `C[C@@H](NS(=O)(=O)c1ccc(-c2c(C#N)c3cc(C(F)(F)F)cnc3n2C2CCC2)nc1)C(F)(F)F` [Cpd 228, 6-[3-cyano-1-cyclobutyl-5-(trifluoromethyl)-1H-pyrrolo[2,3-b]pyridin-2-yl]-N-[(2R)-1,1,1-trifluoropropan-2-yl]pyridine-3-sulfonamide]: 190 to 192 °C and under 0.5 µM.
The corresponding values for `CC(C)(C)NS(=O)(=O)c1ccc(-c2c(C#N)c3cc(C(F)(F)F)cnc3n2CC2CC2)nc1` [Cpd 296, N-tert-butyl-6-[3-cyano-1-(cyclopropylmethyl)-5-(trifluoromethyl)-1H-pyrrolo[2,3-b]pyridin-2-yl]pyridine-3-sulfonamide] are 179 to 180 °C and under 0.5 µM.
The corresponding values for `CC(C)(C)NS(=O)(=O)c1ccc(-c2c(C#N)c3cc(Cl)cnc3n2C2CCC2)cc1` [Cpd 371, N-tert-butyl-4-(5-chloro-3-cyano-1-cyclobutyl-1H-pyrrolo[2,3-b]pyridin-2-yl)benzenesulfonamide] are 244 to 246 °C and under 0.5 µM.
In turn, `CCc1cnc2c(c1)c(C#N)c(-c1ccc(S(=O)(=O)N[C@@H](C)C(F)(F)F)cn1)n2-c1ccccn1` [Cpd 414, 6-[3-cyano-5-ethyl-1-(pyridin-2-yl)-1H-pyrrolo[2,3-b]pyridin-2-yl]-N-[(2S)-1,1,1-trifluoropropan-2-yl]pyridine-3-sulfonamide] showed a melting point of 190 to 195 °C. The molecule also came in with an IC50 in data set [1] of under 0.5 µM.
The corresponding values for `COc1ccc2c(n1)c(C#N)c(-c1ncc(S(=O)(=O)NC(CF)CF)cn1)n2C1CCC1` [Cpd 19, 2-(3-cyano-1-cyclobutyl-5-methoxy-1H-pyrrolo[3,2-b]pyridin-2-yl)-N-(1,3-difluoropropan-2-yl)pyrimidine-5-sulfonamide] are 241 to 243 °C and 2 to 5 µM.
The matching figures for `NC(=O)c1c(-c2ccc(S(=O)(=O)NC3(C(F)(F)F)CC3)cn2)n(C2CCCC2)c2ncc(C(F)(F)F)cc12` [Cpd 407, 1-cyclopentyl-5-(trifluoromethyl)-2-(5-{[1-(trifluoromethyl)cyclopropyl]sulfamoyl}pyridin-2-yl)-1H-pyrrolo[2,3-b]pyridine-3-carboxamide]: 262 to 264 °C and under 0.5 µM.
The matching figures for `C[C@H](NS(=O)(=O)c1ccc(-c2c(C#N)c3cc(C4CC4)ncc3n2C2CCC2)nc1)C(F)(F)F` [Cpd 223, 6-(3-cyano-1-cyclobutyl-5-cyclopropyl-1H-pyrrolo[2,3-c]pyridin-2-yl)-N-[(2S)-1,1,1-trifluoropropan-2-yl]pyridine-3-sulfonamide]: 200 to 205 °C and 0.5 to 2 µM.
Consider `C[C@H](NS(=O)(=O)c1ccc(-c2c(C#N)c3cccnc3n2C2CCCC2)nc1)C(F)(F)F` [Cpd 221, 6-(3-cyano-1-cyclopentyl-1H-pyrrolo[2,3-b]pyridin-2-yl)-N-[(2S)-1,1,1-trifluoropropan-2-yl]pyridine-3-sulfonamide], for which the melting point was in the range of 157 to 159 °C. In data set [1], the half-inhibitory concentration (IC50) is under 0.5 µM.
The matching figures for `CC(C)(C)NS(=O)(=O)c1ccc(-c2c(C#N)c3cc(C(F)(F)F)cnc3n2-c2ncccn2)cc1` [Cpd 334, N-tert-butyl-4-[3-cyano-1-(pyrimidin-2-yl)-5-(trifluoromethyl)-1H-pyrrolo[2,3-b]pyridin-2-yl]benzenesulfonamide]: 228 to 230 °C and 2 to 5 µM.
The corresponding values for `CC1(NS(=O)(=O)c2ccc(-c3c(C(N)=O)c4cc(C(F)(F)F)cnc4n3C3CCCCC3)cc2)CC1` [Cpd 442, 1-cyclohexyl-2-{4-[(1-methylcyclopropyl)sulfamoyl]phenyl}-5-(trifluoromethyl)-1H-pyrrolo[2,3-b]pyridine-3-carboxamide] are 284 to 286 °C and under 0.5 µM.

The record behind these values is patent publication US9593108B2, “Compounds and methods for antiviral treatment” (PTC Therapeutics, Inc., priority 2009, dated 2017).
